From US7217802B2, “Method and kit for detecting, or determining, 3,4-methylenedioxymethamphetamine” (Randox Laboratories Limited, priority 2001, dated 2007)
Converted amounts (≈) assume the structure as drawn. Read-outs that look alike come from different tables or passages of the source.

Tests used:
[1] = test system: antiserum raised to immunogen 7 (IgG fraction); assay: MDMA competitive ELISA (microtiter plate); format: binding, sheep; settings: for IC50 / % CR (cross-reactivity = IC50MDMA/IC50CR x 100): Hapten 7-HRP; for % CR (cross-reactivity = IC50MDMA/IC50CR x 100): relative to MDMA 100; for level of cross-reactivity of the MDMA assays (in words): summary of Table 2
Procedure: An aqueous solution of the immunogen prepared in Example 8 was formulated with Freund's Complete Adjuvant (FCA) to form an emulsion consisting of 2 mg/ml immunogen in 50% (v/v) FCA. Two sheep were immunised with this emulsion, 0.25 ml being subcutaneously injected at each of 4 sites in the flank of each animal. Subsequent immunisations (boosts) contained 1 mg/ml immunogen emulsified in 50% (v/v) Freund's Incomplete Adjuvant (FIA) and were administered in the same manner at monthly intervals for 1 year. Blood sampling took place 7 to 14 days after each boost. Each sample was processed to produce antiserum that was further purified by caprylic acid and ammonium sulfate precipitation to yield an immunoglobulin G (IgG) fraction. The IgG fraction was evaluated by competitive microtiter plate assay, as described below.
The wells of an enhanced binding 96 well polystyrene microtiter plate were coated with the IgG fraction of the antiserum raised to Immunogen 7 (Example 8), diluted in 10 mM Tris, pH8.5 (125 μl/well). The appropriate antibody coating dilution was determined using standard ELISA chequerboard techniques. The plate was incubated for 2 hours at 37° C., washed 4 times with Tris buffered saline containing Tween 20 (TBST) and tapped dry. Standard solutions of MDMA were prepared in TBST at 0, 1, 10, 50, 100, 250, 500 and 1000 ng/ml and 25 μl of each was added to the appropriate wells (FIG. 2). Conjugates (detection reagents)-hapten 7-HRP (Example 9) and hapten 10-HRP (Example 12)—were diluted in Tris buffer, pH7.2, containing EDTA, D-mannitol, sucrose, thimerosal and BSA, appropriate dilutions being determined by standard ELISA chequerboard techniques, and 100 μl of each was added to the appropriate wells (FIG. 2). The plate was incubated at 37° C. for 2 hours. Excess unbound conjugate was removed by washing 6 times over a 10 minute period with TBST.
125 μl of tetramethylbenzidine (TMB) substrate solution was added to each well of the plate which was then incubated for 15 to 20 minutes in the dark at room temperature. The reaction was terminated by addition of 125 μl 0.2 M H2SO4 to each well. The absorbance was then measured at 450 nm using a microtiter plate reader.
In order to determine the specificity of the MDMA competitive ELISAs, standard solutions of potential cross-reactants MDEA, MDA, d-amphetamine, (+)-methamphetamine, (+)-ephedrine, (−)-ephedrine, (+)-pseudoephedrine, (−)-pseudoephedrine and 1-amphetamine were prepared in TBST at 0, 500, 1000, 5000, 10000, 25000, 50000 and 100000 ng/ml. Employing each series of standards in the MDMA competitive ELISAs, calibration curves were generated and these were used to determine the cross-reactivity of the immunoassays with these drugs. The results of this study are presented in Table 2, cross-reactivity being calculated according to the following formula: % CR=IC50MDMA/IC50CR×100
Where % CR is the percentage cross-reactivity, IC50MDMA is the concentration of MDMA that causes 50% displacement of signal and IC50CR is the concentration of potential cross-reactant, for which % CR is being evaluated, that causes 50% displacement of signal.

[2] = test system: Cozart Amphetamine; settings: recalculated relative to 100% for MDMA; cited from earlier work
[3] = test system: Cozart Methamphetamine and MDMA; settings: cited from earlier work; for cross-reactivity, Cozart Methamphetamine and MDMA: recalculated relative to 100% for MDMA
[4] = test system: Cozart methamphetamine EIA; settings: cited from earlier work; for cross-reactivity, Cozart Methamphetamine: recalculated relative to 100% for MDMA; for cross-reactivity, Cozart methamphetamine EIA: compared to 100% for methamphetamine
[5] = test system: Cozart MDMA EIA; settings: cited from earlier work; for cross-reactivity, Cozart MDMA: recalculated relative to 100% for MDMA; for cross-reactivity, Cozart MDMA EIA: compared to 100% for MDMA
[6] = test system: Cedia DAU; settings: cited from earlier work
[7] = test system: Emit II Plus Monoclonal; settings: cited from earlier work
[8] = in vivo; cited from earlier work
[9] = recalculated relative to 100% for MDMA

(+)-Pseudoephedrine
IC50 ([1]; Trial 1): >100 µg/mL
% CR (cross-reactivity = IC50MDMA/IC50CR x 100) ([1]; Trial 1): <0.017%

(−)-Pseudoephedrine
IC50 ([1]; Trial 1): >100 µg/mL
% CR (cross-reactivity = IC50MDMA/IC50CR x 100) ([1]; Trial 1): <0.017%

C[C@H](N)Cc1ccccc1 [D-Amphetamine]
IC50 ([1]; Trial 1): 52.199 µg/mL (≈ 386 µM)
% CR (cross-reactivity = IC50MDMA/IC50CR x 100) ([1]; Trial 1): 0.03%
level of cross-reactivity of the MDMA assays (in words) [1]: very low levels of cross-reactivity
cross-reactivity, Cozart Amphetamine [2]: 1,428%
cross-reactivity, Cozart Methamphetamine and MDMA [3]: 1.52%
cross-reactivity, Cozart Methamphetamine [4]: 1%
cross-reactivity, Cozart MDMA [5]: 0.2–0.43%
cross-reactivity, CEDIA [6, 9]: 146.5%
cross-reactivity, Emit [7, 9]: 917%

CN[C@H](C)[C@@H](O)c1ccccc1 [(+)-Ephedrine]
IC50 ([1]; Trial 1): >100 µg/mL
% CR (cross-reactivity = IC50MDMA/IC50CR x 100) ([1]; Trial 1): <0.017%

CC(N)Cc1ccccc1 (racemic) [D,L-Amphetamine]
cross-reactivity, CEDIA [6, 9]: 84.1%
cross-reactivity, Emit [7, 9]: 545.6%

CCNC(C)Cc1ccc2c(c1)OCO2 (centres unmarked) [MDEA, 3,4-methylenedioxyethylamphetamine]
IC50 ([1]; Trial 2): 0.015 µg/mL (≈ 0.0724 µM)
% CR (cross-reactivity = IC50MDMA/IC50CR x 100) ([1]; Trial 2): 200%
level of cross-reactivity of the MDMA assays (in words) [1]: high levels of cross-reactivity
cross-reactivity, Cozart Amphetamine [2]: 228.5%
cross-reactivity, Cozart Methamphetamine and MDMA [3]: 10.85%
cross-reactivity, Cozart methamphetamine EIA [4]: 50–100%
cross-reactivity, Cozart Methamphetamine [4]: 5–10%
cross-reactivity, Cozart MDMA [5]: 7.0–13.0%

CN[C@@H](C)[C@H](O)c1ccccc1 [(−)-Ephedrine]
IC50 ([1]; Trial 1): >100 µg/mL
% CR (cross-reactivity = IC50MDMA/IC50CR x 100) ([1]; Trial 1): <0.017%

CN[C@@H](C)Cc1ccccc1 [D-Methamphetamine]
IC50 ([1]; Trial 1): 11.138 µg/mL (≈ 74.6 µM)
% CR (cross-reactivity = IC50MDMA/IC50CR x 100) ([1]; Trial 1): 0.15%
level of cross-reactivity of the MDMA assays (in words) [1]: very low levels of cross-reactivity
cross-reactivity, Cozart Methamphetamine and MDMA [3]: 217%
cross-reactivity, Cozart Methamphetamine [4]: 10%
cross-reactivity, Cozart MDMA EIA [5]: 52–80%
cross-reactivity, Cozart MDMA [5]: 52–80%
cross-reactivity, CEDIA [6, 9]: 145%

CNC(C)Cc1ccc2c(c1)OCO2 (centres unmarked) [MDMA, 3,4-methylenedioxymethamphetamine]
IC50 (standard concentration which produces 50% B/B0) ([1]; Conjugate 7 (hapten 7-HRP)): 0.017 µg/mL (≈ 0.088 µM)
% B/B0 ([1]; Conjugate 7 (hapten 7-HRP), standard concentration 1 ng/ml): 83.4%
% B/B0 ([1]; Conjugate 7 (hapten 7-HRP), standard concentration 10 ng/ml): 58%
% B/B0 ([1]; Conjugate 7 (hapten 7-HRP), standard concentration 50 ng/ml): 34.7%
% B/B0 ([1]; Conjugate 7 (hapten 7-HRP), standard concentration 100 ng/ml): 26%
% B/B0 ([1]; Conjugate 7 (hapten 7-HRP), standard concentration 250 ng/ml): 15.9%
% B/B0 ([1]; Conjugate 7 (hapten 7-HRP), standard concentration 500 ng/ml): 10.9%
% B/B0 ([1]; Conjugate 7 (hapten 7-HRP), standard concentration 1000 ng/ml): 7.5%
IC50 (standard concentration which produces 50% B/B0) ([1]; Conjugate 10 (hapten 10-HRP)): 0.0236 µg/mL (≈ 0.122 µM)
% B/B0 ([1]; Conjugate 10 (hapten 10-HRP), standard concentration 1 ng/ml): 86.1%
% B/B0 ([1]; Conjugate 10 (hapten 10-HRP), standard concentration 10 ng/ml): 59.3%
% B/B0 ([1]; Conjugate 10 (hapten 10-HRP), standard concentration 50 ng/ml): 34.4%
% B/B0 ([1]; Conjugate 10 (hapten 10-HRP), standard concentration 100 ng/ml): 28.3%
% B/B0 ([1]; Conjugate 10 (hapten 10-HRP), standard concentration 250 ng/ml): 19.6%
% B/B0 ([1]; Conjugate 10 (hapten 10-HRP), standard concentration 500 ng/ml): 14.4%
% B/B0 ([1]; Conjugate 10 (hapten 10-HRP), standard concentration 1000 ng/ml): 8.97%
IC50 ([1]; Trial 1): 0.017 µg/mL (≈ 0.088 µM)
% CR (cross-reactivity = IC50MDMA/IC50CR x 100) ([1]; Trial 1): 100%
IC50 ([1]; Trial 2): 0.03 µg/mL (≈ 0.155 µM)
% CR (cross-reactivity = IC50MDMA/IC50CR x 100) ([1]; Trial 2): 100%
cross-reactivity, Cozart Amphetamine [2]: 100%
cross-reactivity, single Cozart methamphetamine kit ([3]; compared to 100% for methamphetamine): 43–49%
cross-reactivity, Cozart Methamphetamine and MDMA [3]: 100%
cross-reactivity, Cozart methamphetamine EIA [4]: 758–1250%
cross-reactivity, Cozart Methamphetamine [4]: 100%
cross-reactivity, Cozart MDMA [5]: 100%
cross-reactivity, CEDIA ([6]; compared to 100% for D-methamphetamine): 69%
cross-reactivity, CEDIA [6, 9]: 100%
cross-reactivity, Emit ([7]; compared to 100% for D,L-methamphetamine): 14.3%
cross-reactivity, Emit [7, 9]: 100%
excreted unchanged in urine [8]: 65%

CN[C@@H](C)Cc1ccccc1 (racemic) [D,L-Methamphetamine]
cross-reactivity, CEDIA [6, 9]: 94.25%
cross-reactivity, Emit [7, 9]: 699.7%

C[C@@H](N)Cc1ccccc1 [L-Amphetamine]
IC50 ([1]; Trial 2): >30 µg/mL
% CR (cross-reactivity = IC50MDMA/IC50CR x 100) ([1]; Trial 2): <0.1%
cross-reactivity, CEDIA [6, 9]: 4.35%
cross-reactivity, Emit [7, 9]: 120.13%

CC(N)Cc1ccc2c(c1)OCO2 (centres unmarked) [MDA, 3,4-methylenedioxyamphetamine]
IC50 ([1]; Trial 1): 0.3 µg/mL (≈ 1.67 µM)
% CR (cross-reactivity = IC50MDMA/IC50CR x 100) ([1]; Trial 1): 5.7%
level of cross-reactivity of the MDMA assays (in words) [1]: lower levels of cross-reactivity
cross-reactivity, Cozart Amphetamine [2]: 208488–304164%
cross-reactivity, Cozart Methamphetamine and MDMA [3]: 0.87%
cross-reactivity, Cozart Methamphetamine [4]: 0.36%
cross-reactivity, Cozart MDMA [5]: 0.3–0.74%
cross-reactivity, CEDIA [6, 9]: 2.76%
cross-reactivity, Emit [7, 9]: 430.1%

CN[C@H](C)Cc1ccccc1 [L-Methamphetamine]
cross-reactivity, Cozart MDMA [5]: 4–22%
cross-reactivity, CEDIA [6, 9]: 17.4%
cross-reactivity, Emit [7, 9]: 378.7%

CCC(Cc1ccc2c(c1)OCO2)NC (centres unmarked) [MBDB, N-methyl-1-(3,4-methylenedioxyphenyl)-2-butamine]
cross-reactivity, Cozart Methamphetamine and MDMA [3]: 319–334.2%
cross-reactivity, Cozart methamphetamine EIA [4]: 150–200%
cross-reactivity, Cozart Methamphetamine [4]: 15–20%
cross-reactivity, Cozart MDMA EIA [5]: 10.4–20%
cross-reactivity, Cozart MDMA [5]: 10.4–20^ %
